# Experiments:
# [1] = test system: photoaged skin; assay: topical application of strontium ion in a carrier to skin; assay type: in vivo; conditions: carrier e.g. distillate of orange flower petals (neroli floral water), within minutes of application
# Method: The epidermal ridges are less pronounced, an effect that may be related to relaxation of erector muscles.
# This effect lasted for about 4 hours.
# [2] = taken orally, long term use; cited from earlier work
structure (smiles),measurement,setting,value
[Sr+2] [strontium ion],effect on skin texture,[1],"changes the texture of photoaged skin, resulting in a more youthful complexion"
same,toxicity,[2],toxicity is not a problem
